Here are results for 24 compounds from patent publication US4048307A, “Cyclic adenosine monophosphate 8-substituted derivatives” (priority 1974, dated 1977).

In series [1] the target is Hog Brain Phosphodiesterase (PDE). Nature of the series: Inhibition of c-AMP hydrolysis by hog brain phosphodiesterase (PDE). It is filed as biochemical. Particulars: for Ki: Lineweaver-Burk plot slope and Dixon plot cross-point, read-out: Inhibition II: Inhibition Constant (Ki); for Inhibition I: Relative Inhibition: c-AMP 1.0, derivative 1.0 millimole/liter. How it is done: **PDE inhibition was evaluated based on the relative inhibition observed
when the sample compound was added at the same molar concentration as tha
of the substrate (1 millimole/liter) and the inhibition constant (ki)
calculated according to the enzymological method (Lineweaver-Burk plot).
The enzyme purification was conducted by ammonium sulfate fractionation and passage through DEAE cellulose column according to the modification of the method of T. S. Teo, T. T. Wang et al. (J. Biol. Chemi. 248, 585). […] Reaction and analysis were carried out as taught by Bucher and Sutherland [J. Biol. Chemi., 237, 1244 (1962)].
*: The values were calculated according the following equation: 100
containing no inhibitor.
**: Ki values were calculated from the slope of Lineweaver-Burk plot and
the cross-point of Dixon plot.?

Series [2] relates to CHO-Ki cells. Nature of the series: Reverse transformation of cultured CHO-Ki cells (c-AMP level elevation, membrane permeability by L.R.C.). It is filed as cell-based, Chinese hamster. Particulars: for minimal effective concentration: Cricetulus griseus, microscopic analysis after 16 and 30 hours, read-out: L.R.C. (limiting reverse-transformable concentration). How it is done: We utilized their test system and tested new derivatives as regards the following two properties:
The tests were conducted in the following manner according to the modification of the method of Hsie and Puck:
2. The membrane permeability was evaluated based on the reverse transformation. More specifically, new derivatives were added at a concentration of 10^-3, 5 × 10^-2, 10^-1, 2× 10^-1, 5 × 10^-1 or 1 millimole/liter to the above-mentionedmedium. After 16 and 30 hours, microscopic analysis was conducted, and the limiting reverse-transformable concentration (referred to as "L.R.C.") was determined and the membrane permeability was evaluated, based on the so determined L.R.C. value.
***The membrane permeability was determined based on the minimum
concentration causing the re-transformation of cultured CHO-Ki cells. (Th

Series [3] relates to Hog Brain Phosphodiesterase (PDE). The series can be described thus: Inhibition of c-AMP hydrolysis by hog brain phosphodiesterase (PDE). It counts as biochemical. Particulars: c-AMP 1.0, derivative 0.5 millimole/liter.
In series [4] the test system is CHO-Ki cells. Particulars: 10^-3 mole/liter; Hsie and Puck; cited from earlier work.
Series [5] deals with Hog Brain Phosphodiesterase (PDE). Particulars: Hsie and Puck; cited from earlier work.
In a further series the test system is protein kinases. Particulars: Hsie and Puck; cited from earlier work.

As for `CCCNc1nc2c(N)ncnc2n1[C@@H]1O[C@@H]2COP(=O)(O)O[C@H]2[C@H]1O` [8-CH3 (CH2)2 NH-c-AMP, 8-n-propylamino-c-AMP], in series [1], the inhibition constant Ki came to 230 µM and the “Inhibition I: Relative Inhibition” value stood at 51.1%.
Regarding `CCCSc1nc2c(N)ncnc2n1[C@@H]1O[C@@H]2COP(=O)(O)O[C@H]2[C@H]1O` [8-CH3 (CH2)2 S-c-AMP, 8-n-propylmercapto-c-AMP], the minimal effective concentration with CHO-Ki cells [2] is roughly 400 µM. Also, in series [1], the Ki came out at 78 µM and the “Inhibition I: Relative Inhibition” value worked out at 60.1%.
For `CCCCNc1nc2c(N)ncnc2n1[C@@H]1O[C@@H]2COP(=O)(O)O[C@H]2[C@H]1O` [8-CH3 (CH2)3 NH-c-AMP, 8-n-butylamino-c-AMP], in that order: roughly 300 µM, 120 µM and 55.6%.
On to `CCCCSc1nc2c(N)ncnc2n1[C@@H]1O[C@@H]2COP(=O)(O)O[C@H]2[C@H]1O` [8-CH3 (CH2)3 S-c-AMP, 8-n-butylmercapto-c-AMP], for which, in the series on CHO-Ki cells [2], the minimal effective concentration is roughly 400 µM. In series [1], the Ki stood at 74 µM and the “Inhibition I: Relative Inhibition” value was found to be 64.3%.
For the compound `CCCCCNc1nc2c(N)ncnc2n1[C@@H]1O[C@@H]2COP(=O)(O)O[C@H]2[C@H]1O` [8-CH3 (CH2)4 NH-c-AMP, 8-n-pentylamino-c-AMP], in series [1], the inhibitory constant (Ki) came to 72 µM and the “Inhibition I: Relative Inhibition” value was 62.3%.
`CCCCCSc1nc2c(N)ncnc2n1[C@@H]1O[C@@H]2COP(=O)(O)O[C@H]2[C@H]1O` [8-CH3 (CH2)4 S-c-AMP, 8-n-amylmercapto-c-AMP]: the minimal effective concentration in the series on CHO-Ki cells [2] amounted to 400 µM. Besides, in series [1], the Ki turned out to be 40 µM and the “Inhibition I: Relative Inhibition” value was 76.7%.
As to `CCCCCCNc1nc2c(N)ncnc2n1[C@@H]1O[C@@H]2COP(=O)(O)O[C@H]2[C@H]1O` [8-CH3 (CH2)5 NH-c-AMP, 8-n-hexylamino-c-AMP], in series [1], the inhibitory constant (Ki) is 58 µM and the “Inhibition I: Relative Inhibition” value came to 76.1%.
Regarding `CCCCCCSc1nc2c(N)ncnc2n1[C@@H]1O[C@@H]2COP(=O)(O)O[C@H]2[C@H]1O` [8-CH3 (CH2)5 S-c-AMP, 8-n-hexylmercapto-c-AMP], the minimal effective concentration in the series with CHO-Ki cells [2] was determined as 300 µM. Also, in series [1], the inhibition constant Ki was found to be 19 µM and the “Inhibition I: Relative Inhibition” value is 92.4%.
Regarding `CCCCCCCNc1nc2c(N)ncnc2n1[C@@H]1O[C@@H]2COP(=O)(O)O[C@H]2[C@H]1O` [8-CH3 (CH2)6 NH-c-AMP, 8-n-heptylamino-c-AMP], in series [1], the Ki is 26 µM and the “Inhibition I: Relative Inhibition” value is given as 78.2%.
Regarding `CCCCCCCSc1nc2c(N)ncnc2n1[C@@H]1O[C@@H]2COP(=O)(O)O[C@H]2[C@H]1O` [8-CH3 (CH2)6 S-c-AMP, 8-n-heptylmercapto-c-AMP], in the series on CHO-Ki cells [2], the minimal effective concentration amounted to 300 µM. For the same compound, in series [3], the “Inhibition I: Relative Inhibition” value is given as 90.4%.
For `CCCCCCCCNc1nc2c(N)ncnc2n1[C@@H]1O[C@@H]2COP(=O)(O)O[C@H]2[C@H]1O` [8-CH3 (CH2)7 NH-c-AMP, 8-n-octylamino-c-AMP], in series [3], the “Inhibition I: Relative Inhibition” value turned out to be 80.0%.
In the case of `CCCCCCCCSc1nc2c(N)ncnc2n1[C@@H]1O[C@@H]2COP(=O)(O)O[C@H]2[C@H]1O` [8-CH3 (CH2)7 S-c-AMP, 8-n-octylmercapto-c-AMP], in the series on CHO-Ki cells [2], the “Toxic (remark at 10^-3 mole/liter)” value is recorded as “Toxic” and the minimal effective concentration turned out to be 20 µM. Besides, in series [1], the inhibitory constant (Ki) stood at 16 µM and the “Inhibition I: Relative Inhibition” value was 95.0%.
For the compound `CCCCCCCCCNc1nc2c(N)ncnc2n1[C@@H]1O[C@@H]2COP(=O)(O)O[C@H]2[C@H]1O` [8-CH3 (CH2)8 NH-c-AMP, 8-n-nonylamino-c-AMP], in series [1], the Ki was 27 µM. In series [3], the “Inhibition I: Relative Inhibition” value came out at 71.3%.
Turning to `CCCCCCCCCSc1nc2c(N)ncnc2n1[C@@H]1O[C@@H]2COP(=O)(O)O[C@H]2[C@H]1O` [8-CH3 (CH2)8 S-c-AMP, 8-n-nonylmercapto-c-AMP], in the series on CHO-Ki cells [2], the “Toxic (remark at 10^-3 mole/liter)” value was “Toxic” and the minimal effective concentration is 10 µM. Moreover, the Ki in series [1] is 31 µM. The “Inhibition I: Relative Inhibition” value in series [3] came to 74.9%.
As to `CCCCCCCCCCNc1nc2c(N)ncnc2n1[C@@H]1O[C@@H]2COP(=O)(O)O[C@H]2[C@H]1O` [8-CH3 (CH2)9 NH-c-AMP, 8-n-decylamino-c-AMP], in the series with CHO-Ki cells [2], the “Toxic (remark at 10^-3 mole/liter)” value is listed as “Toxic” and the minimal effective concentration is roughly 80 µM. The Ki in series [1] stood at 82 µM. For the same compound, in series [3], the “Inhibition I: Relative Inhibition” value stood at 67.6%.
The matching figures for `CCCCCCCCCCSc1nc2c(N)ncnc2n1[C@@H]1O[C@@H]2COP(=O)(O)O[C@H]2[C@H]1O` [8-CH3 (CH2)9 S-c-AMP, 8-n-decylmercapto-c-AMP]: “Toxic”, less than 5 µM, 46 µM and 68.2%.
The matching figures for `CCCCCCCCCCCNc1nc2c(N)ncnc2n1[C@@H]1O[C@@H]2COP(=O)(O)O[C@H]2[C@H]1O` [8-CH3 (CH2)10 NH-c-AMP, 8-n-undecylamino-c-AMP]: “Toxic”, roughly 50 µM, 170 µM and 51.4%.
For the compound `CCCCCCCCCCCSc1nc2c(N)ncnc2n1[C@@H]1O[C@@H]2COP(=O)(O)O[C@H]2[C@H]1O` [8-CH3 (CH2)10 S-c-AMP, 8-n-undecylmercapto-c-AMP], in the series on CHO-Ki cells [2], the “Toxic (remark at 10^-3 mole/liter)” value was “Toxic” and the minimal effective concentration was less than 5 µM. Also, in series [1], the Ki stood at 88 µM and the “Inhibition I: Relative Inhibition” value turned out to be 39.1%.
With `CCCCCCCCCCCCNc1nc2c(N)ncnc2n1[C@@H]1O[C@@H]2COP(=O)(O)O[C@H]2[C@H]1O` [8-CH3 (CH2)11 NH-c-AMP, 8-n-dodecylamino-c-AMP], in the series on CHO-Ki cells [2], the “Toxic (remark at 10^-3 mole/liter)” value is listed as “Toxic” and the minimal effective concentration was roughly 70 µM. The Ki in series [1] stood at 660 µM. In series [3], the “Inhibition I: Relative Inhibition” value was 18.3%.
Consider `CCCCCCCCCCCCSc1nc2c(N)ncnc2n1[C@@H]1O[C@@H]2COP(=O)(O)O[C@H]2[C@H]1O` [8-CH3 (CH2)11 S-c-AMP, 8-n-dodecylmercapto-c-AMP], for which, in the series with CHO-Ki cells [2], the “Toxic (remark at 10^-3 mole/liter)” value is “Toxic” and the minimal effective concentration was less than 5 µM. In series [1], the Ki is 140 µM and the “Inhibition I: Relative Inhibition” value was determined as 26.4%.
With `CCCCCCCCCCCCCNc1nc2c(N)ncnc2n1[C@@H]1O[C@@H]2COP(=O)(O)O[C@H]2[C@H]1O` [8-CH3 (CH2)12 NH-c-AMP, 8-n-tridecylamino-c-AMP], in the series on CHO-Ki cells [2], the “Toxic (remark at 10^-3 mole/liter)” value is “Toxic” and the minimal effective concentration was roughly 90 µM. For the same compound, in series [1], the Ki was found to be 840 µM. In addition, the “Inhibition I: Relative Inhibition” value in series [3] was found to be 11.3%.
Regarding `CNc1nc2c(N)ncnc2n1[C@@H]1O[C@@H]2COP(=O)(O)O[C@H]2[C@H]1O` [8-CH3 NH-c-AMP, 8-methylamino-c-AMP, reference compound], in the series with CHO-Ki cells [2], the minimal effective concentration is roughly 500 µM. For the same compound, in series [1], the inhibition constant Ki is 210 µM and the “Inhibition I: Relative Inhibition” value is given as 47.6%.
For `Nc1ncnc2c1nc(Br)n2[C@@H]1O[C@@H]2COP(=O)(O)O[C@H]2[C@H]1O` [Example 8-Br-c-AMP, 8-bromo-c-AMP, reference compound], in that order: roughly 200 µM, 470 µM and 38.9%.
As for `CCCC(=O)Nc1ncnc2c1ncn2[C@@H]1O[C@@H]2COP(=O)(O)O[C@H]2[C@H]1OC(=O)CCC` [N^6,O^2' -dibutyryl-c-AMP], the “reverse transformation of CHO-Ki (literature)” value in the series with CHO-Ki cells [4] is given as “reversely transformed from the epitherial form to the fibroblast form”. Moreover, the “PDE inhibition (literature)” value in series [5] is listed as “inhibits PDE to elevate the intracellular c-AMP level”. In addition, the “protein kinase activation (literature)” value in the series with protein kinases is on record as “activate protein kinases”.
